Laboratory results from publication PMC11094663 (Journal of ethnopharmacology, 2022).
Where two headings read alike, the source gives them in different places.

Legend:
[1] = molecular target: T1, pregnane X receptor (PXR) (Homo sapiens, UniProt O75469); format: cell-based; conditions: for Fold induction in PXR activity: HepG2, 24 h, mean ± SD, NA = No activation
T1 sequence (O75469 1-434): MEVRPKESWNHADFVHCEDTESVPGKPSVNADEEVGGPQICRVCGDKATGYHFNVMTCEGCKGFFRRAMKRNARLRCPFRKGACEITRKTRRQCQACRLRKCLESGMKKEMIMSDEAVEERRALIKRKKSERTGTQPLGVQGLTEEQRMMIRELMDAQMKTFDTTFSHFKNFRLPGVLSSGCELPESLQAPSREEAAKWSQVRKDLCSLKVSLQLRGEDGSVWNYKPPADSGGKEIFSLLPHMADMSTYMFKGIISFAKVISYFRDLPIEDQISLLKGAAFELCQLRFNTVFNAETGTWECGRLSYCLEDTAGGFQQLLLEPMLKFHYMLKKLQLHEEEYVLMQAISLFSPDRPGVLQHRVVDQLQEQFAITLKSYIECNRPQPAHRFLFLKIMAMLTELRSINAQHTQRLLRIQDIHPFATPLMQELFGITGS

CYP3A4 = CYP3A4 (Homo sapiens, UniProt P08684); test: Cytochrome P450; conditions: for CYP 3A4 Inhibition - IC50: 15 min incubation, 37 °C, mean ± SD of three experiments
Chain of CYP3A4 (P08684 whole entry): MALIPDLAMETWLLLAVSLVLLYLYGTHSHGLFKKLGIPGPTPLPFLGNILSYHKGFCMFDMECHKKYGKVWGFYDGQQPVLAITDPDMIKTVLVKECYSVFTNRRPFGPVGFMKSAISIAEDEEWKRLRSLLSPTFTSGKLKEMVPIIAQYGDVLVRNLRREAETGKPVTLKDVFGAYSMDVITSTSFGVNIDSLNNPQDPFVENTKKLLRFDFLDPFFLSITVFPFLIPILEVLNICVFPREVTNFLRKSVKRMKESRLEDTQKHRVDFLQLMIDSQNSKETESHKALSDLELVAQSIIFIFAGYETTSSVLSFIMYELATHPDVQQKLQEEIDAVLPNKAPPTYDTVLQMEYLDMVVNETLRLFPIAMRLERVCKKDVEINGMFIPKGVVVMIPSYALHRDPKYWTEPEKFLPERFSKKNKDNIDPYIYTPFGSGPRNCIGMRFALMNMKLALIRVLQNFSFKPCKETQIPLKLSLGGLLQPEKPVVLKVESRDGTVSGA

| Fold induction in PXR activity ([1]; compounds at 12.5 μg/mL) [fold] | Fold induction in PXR activity ([1]; compounds at 25 μg/mL) [fold] | Fold induction in PXR activity ([1]; compounds at 50 μg/mL) [fold] | CYP 3A4 Inhibition - IC50 (CYP3A4) [µg/mL] | Molecule | also measured |
| --- | --- | --- | --- | --- | --- |
| 0.93 ± 0.04 | 1.01 ± 0.13 | 1.39 ± 0.11 | 29.00 ± 0.82 | COC(=O)C1=C[C@H](O)C[C@H]2[C@]3(C)C[C@@H](c4ccoc4)OC(=O)[C@@H]3C[C@@H](O[C@@H]3O[C@H](CO)[C@@H](O)[C@H](O)[C@H]3O)[C@@]12C [(2R,5R,6R,8R,9S, 10S,12S)-15,16-epoxy-2-hydroxy-6-O-(β-D-glucopyranosyl)-cleroda-3, 13(16),14-trien-17,12-olid-18-oicacidmethyl ester] | – |
| – | – | – | – | COC(=O)C1=C[C@H](O)C[C@H]2[C@]3(C)C[C@@H](c4ccoc4)OC(=O)[C@H]3C[C@H](O[C@@H]3O[C@H](CO)[C@@H](O)[C@H](O)[C@H]3O)[C@@]12C [Borapetoside B, borapetoside B] | IC50 (CYP3A4): 181 µM |
| – | – | – | – | COC(=O)C1=CCC[C@H]2[C@]3(C)C[C@@H](c4ccoc4)OC(=O)[C@@H]3C[C@@H](O[C@@H]3O[C@H](CO)[C@@H](O)[C@H](O)[C@H]3O)[C@@]12C [Borapetoside C, borapetoside C] | IC50 (CYP3A4): 69.9 µM |
| – | – | – | 13.00 ± 0.82 | COC(=O)C1=CCCC2C3(C)CC(c4ccoc4)OC(=O)C3=CC(OC3OC(CO)C(O)C(O)C3O)C12C (stereo not shown) [Borapetoside F, borapetoside F] | – |
| – | – | – | – | C=C(CC[C@@H](C)[C@H]1CC[C@@]2(C)[C@@H]3CC[C@H]4[C@H](C)[C@@H](O)CC[C@@]45C[C@@]35CC[C@]12C)C(C)C [Cycloeucalenol, cycloeucalenol] | fold induction at 24 h, 12.5 μg/mL ([1]; human): 1.42 ± 0.06; fold induction at 24 h, 25 μg/mL ([1]; human): 1.91 ± 0.23; fold induction at 24 h, 50 μg/mL ([1]; human): 2.42 ± 0.3 |
| – | – | – | – | COc1cc(/C=C/C(=O)NCCc2ccc(O)cc2)ccc1O [N-trans-feruloyl tyramine] | fold induction at 24 h, 12.5 μg/mL ([1]; human): 1.59 ± 0.07; fold induction at 24 h, 25 μg/mL ([1]; human): 2.16 ± 0.27; fold induction at 24 h, 50 μg/mL ([1]; human): 2.29 ± 0.41; IC50 (CYP3A4): 8.62 µM |
| – | – | – | – | CO[C@H]1/C=C/O[C@@]2(C)Oc3c(C)c(O)c4c(O)c(c(/C=N/N5CCN(C)CC5)c(O)c4c3C2=O)NC(=O)/C(C)=C\C=C\[C@H](C)[C@H](O)[C@@H](C)[C@@H](O)[C@@H](C)[C@H](OC(C)=O)[C@@H]1C [Rifampicin, reference compound] | fold induction at 24 h, 5 µM ([1]; human): 3.24 ± 0.15; fold induction at 24 h, 10 µM ([1]; human): 3.25 ± 0.08 |
| 1.48 ± 0.06 | 1.67 ± 0.02 | 1.42 ± 0.06 | >100 | COc1cc(/C=C/CO)cc(OC)c1O[C@@H]1O[C@H](CO)[C@@H](O)[C@H](O[C@@H]2OC[C@](O)(CO)[C@H]2O)[C@H]1O [Tinosinen, tinosinen] | – |
| 1.42 ± 0.06 | 1.50 ± 0.00 | 1.53 ± 0.11 | 45.00 ± 5.72 | CC(=O)O[C@@H]1[C@@H]2[C@H](CC[C@@]3(O)C(=O)O[C@H](c4ccoc4)C[C@@]23C)[C@H](O[C@@H]2O[C@H](CO)[C@@H](O)[C@H](O)[C@H]2O)C[C@@H]1O [Tinosineside A, tinosineside A] | – |
| 1.18 ± 0.09 | 1.54 ± 0.16 | 1.96 ± 0.16 | – | baenzigeride A | – |
| 1.22 ± 0.06 | 1.47 ± 0.03 | 1.95 ± 0.04 | – | cordifoliside C | – |
| 1.30 ± 0.08 | 1.55 ± 0.08 | 1.52 ± 0.15 | – | tinosposinoside | – |

| Molecule | Fold induction in PXR activity ([1]; compounds at 12.5 μg/mL) [fold] | Fold induction in PXR activity ([1]; compounds at 25 μg/mL) [fold] | Fold induction in PXR activity ([1]; compounds at 50 μg/mL) [fold] | CYP 3A4 Inhibition - IC50 (CYP3A4) [µg/mL] | also measured |
| --- | --- | --- | --- | --- | --- |
| C[C@@]12C[C@@H](c3ccoc3)OC(=O)[C@@H]1CC[C@]1(C)[C@H]2[C@@H]2C=C[C@@]1(O)C(=O)O2 [Columbin, columbin] | – | 2.89 ± 0.62 | 3.58 ± 0.61 | – | PXR activation (fold) ([1]; concentration not given): 3 fold |
| COc1cc2c(cc1OC)-c1cc3ccc(OC)c(OC)c3c[n+]1CC2 [Palmatine, palmatine] | 1.08 ± 0.00 | 1.30 ± 0.00 | 1.43 ± 0.00 | 34.00 ± 0.00 | – |
